Measured values published in patent US12606541B2, “PPARg modulators and methods of use” (Eisai R&D Management Co., Ltd., priority 2020, dated 2026).

Molecular target: T1, His6-TEV-PPARγ-(234-505) (Homo sapiens, UniProt P37231)
T1 construct: The His6-TEV-PPARγ-(234-505) protein for assay was expressed and purified; TEV cleavage site (N); made in house
T1 sequence (P37231 234-505): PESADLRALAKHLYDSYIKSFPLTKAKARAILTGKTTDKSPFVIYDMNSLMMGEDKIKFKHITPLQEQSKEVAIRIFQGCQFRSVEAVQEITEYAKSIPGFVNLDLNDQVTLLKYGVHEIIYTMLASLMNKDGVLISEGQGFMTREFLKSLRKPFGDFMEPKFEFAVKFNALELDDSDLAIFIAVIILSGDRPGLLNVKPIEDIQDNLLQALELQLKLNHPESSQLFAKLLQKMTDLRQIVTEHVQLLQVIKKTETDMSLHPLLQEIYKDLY
Assay: TR-FRET Assay to Measure Co-R Peptide Recruitment to PPARγ
Type: biochemical
Conditions: Co-R peptide recruitment to PPARγ; read-out: TR-FRET AC50
Summary of the method: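 His-tagged PPARγ (or controls) was preincubated with compound for 20 minutes at room temperature, then 5 nM anti-His terbium antibody and 200 nM FITC-labeled SMRT-ID2 corepressor peptide (final) were added for a further hour. TR-FRET signal was normalized to percent response using 500 nM T0070907 and DMSO controls.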

| SMILES | AC50 |
| --- | --- |
| COc1cc(-c2cc(C(=O)N3CCC(C(=O)Nc4ccc(CS(C)(=O)=O)cc4)CC3)n[nH]2)c(Cl)cn1 [1-[5-(5-chloro-2-methoxypyridin-4-yl)-1H-pyrazole-3-carbonyl]-N-[4-(methanesulfonylmethyl)phenyl]piperidine-4-carboxamide] | > 1 µM |
| COc1cc(-c2cc(C(=O)N3CCC(C(=O)Nc4cc(C(F)(F)F)ccn4)CC3)n[nH]2)c(Cl)cn1 [1-[5-(5-chloro-2-methoxypyridin-4-yl)-1H-pyrazole-3-carbonyl]-N-[4-(trifluoromethyl)pyridin-2-yl]piperidine-4-carboxamide] | > 1 µM |
| COc1cc(-c2cc(C(=O)N3CCC(C(=O)Nc4ncc(C(C)C)s4)CC3)n[nH]2)c(Cl)cn1 [1-[5-(5-chloro-2-methoxypyridin-4-yl)-1H-pyrazole-3-carbonyl]-N-[5-(propan-2-yl)-1,3-thiazol-2-yl]piperidine-4-carboxamide] | > 1 µM |
| COc1cc(-c2cc(C(=O)N3CCC(C(=O)NCc4ncon4)CC3)n[nH]2)c(Cl)cn1 [1-[5-(5-chloro-2-methoxypyridin-4-yl)-1H-pyrazole-3-carbonyl]-N-[(1,2,4-oxadiazol-3-yl)methyl]piperidine-4-carboxamide] | > 1 µM |
| COc1cc(-c2cc(C(=O)N3CCC(C(=O)NCc4ccon4)CC3)n[nH]2)c(Cl)cn1 [1-[5-(5-chloro-2-methoxypyridin-4-yl)-1H-pyrazole-3-carbonyl]-N-[(1,2-oxazol-3-yl)methyl]piperidine-4-carboxamide] | > 1 µM |
| COc1cc(-c2cc(C(=O)N3CCC(C(=O)NCc4c(C)nn(C)c4C)CC3)n[nH]2)c(Cl)cn1 [1-[5-(5-chloro-2-methoxypyridin-4-yl)-1H-pyrazole-3-carbonyl]-N-[(1,3,5-trimethyl-1H-pyrazol-4-yl)methyl]piperidine-4-carboxamide] | > 1 µM |
| COc1cc(-c2cc(C(=O)N3CCC(C(=O)NCC4OCCCO4)CC3)n[nH]2)c(Cl)cn1 [1-[5-(5-chloro-2-methoxypyridin-4-yl)-1H-pyrazole-3-carbonyl]-N-[(1,3-dioxan-2-yl)methyl]piperidine-4-carboxamide] | > 1 µM |
| COc1cc(-c2cc(C(=O)N3CCC(C(=O)NCC4CCOCO4)CC3)n[nH]2)c(Cl)cn1 (stereo not shown) [1-[5-(5-chloro-2-methoxypyridin-4-yl)-1H-pyrazole-3-carbonyl]-N-[(1,3-dioxan-4-yl)methyl]piperidine-4-carboxamide] | > 1 µM |
| COc1cc(-c2cc(C(=O)N3CCC(C(=O)NCC4OCCO4)CC3)n[nH]2)c(Cl)cn1 [1-[5-(5-chloro-2-methoxypyridin-4-yl)-1H-pyrazole-3-carbonyl]-N-[(1,3-dioxolan-2-yl)methyl]piperidine-4-carboxamide] | > 1 µM |
| COc1cc(-c2cc(C(=O)N3CCC(C(=O)NCc4ncco4)CC3)n[nH]2)c(Cl)cn1 [1-[5-(5-chloro-2-methoxypyridin-4-yl)-1H-pyrazole-3-carbonyl]-N-[(1,3-oxazol-2-yl)methyl]piperidine-4-carboxamide] | > 1 µM |
| COc1cc(-c2cc(C(=O)N3CCC(C(=O)NCc4cnco4)CC3)n[nH]2)c(Cl)cn1 [1-[5-(5-chloro-2-methoxypyridin-4-yl)-1H-pyrazole-3-carbonyl]-N-[(1,3-oxazol-5-yl)methyl]piperidine-4-carboxamide] | > 1 µM |
| COc1cc(-c2cc(C(=O)N3CCC(C(=O)NCC4COCCO4)CC3)n[nH]2)c(Cl)cn1 (stereo not shown) [1-[5-(5-chloro-2-methoxypyridin-4-yl)-1H-pyrazole-3-carbonyl]-N-[(1,4-dioxan-2-yl)methyl]piperidine-4-carboxamide] | > 1 µM |
| COc1cc(-c2cc(C(=O)N3CCC(C(=O)NCC4(C#N)CC4)CC3)n[nH]2)c(Cl)cn1 [1-[5-(5-chloro-2-methoxypyridin-4-yl)-1H-pyrazole-3-carbonyl]-N-[(1-cyanocyclopropyl)methyl]piperidine-4-carboxamide] | > 1 µM |
| COc1cc(-c2cc(C(=O)N3CCC(C(=O)NCC4(O)CCC4)CC3)n[nH]2)c(Cl)cn1 [1-[5-(5-chloro-2-methoxypyridin-4-yl)-1H-pyrazole-3-carbonyl]-N-[(1-hydroxycyclobutyl)methyl]piperidine-4-carboxamide] | > 1 µM |
| COc1cc(-c2cc(C(=O)N3CCC(C(=O)NCC4(O)CC4)CC3)n[nH]2)c(Cl)cn1 [1-[5-(5-chloro-2-methoxypyridin-4-yl)-1H-pyrazole-3-carbonyl]-N-[(1-hydroxycyclopropyl)methyl]piperidine-4-carboxamide] | > 1 µM |
| COc1cc(-c2cc(C(=O)N3CCC(C(=O)NCc4nccn4C)CC3)n[nH]2)c(Cl)cn1 [1-[5-(5-chloro-2-methoxypyridin-4-yl)-1H-pyrazole-3-carbonyl]-N-[(1-methyl-1H-imidazol-2-yl)methyl]piperidine-4-carboxamide] | > 1 µM |

| SMILES | AC50 |
| --- | --- |
| COc1cc(-c2cc(C(=O)N3CCC(C(=O)NCc4cn(C)cn4)CC3)n[nH]2)c(Cl)cn1 [1-[5-(5-chloro-2-methoxypyridin-4-yl)-1H-pyrazole-3-carbonyl]-N-[(1-methyl-1H-imidazol-4-yl)methyl]piperidine-4-carboxamide] | > 1 µM |
| COc1cc(-c2cc(C(=O)N3CCC(C(=O)NCc4ccn(C)n4)CC3)n[nH]2)c(Cl)cn1 [1-[5-(5-chloro-2-methoxypyridin-4-yl)-1H-pyrazole-3-carbonyl]-N-[(1-methyl-1H-pyrazol-3-yl)methyl]piperidine-4-carboxamide] | > 1 µM |
| COc1cc(-c2cc(C(=O)N3CCC(C(=O)NCC4CC(=O)N(C)C4)CC3)n[nH]2)c(Cl)cn1 (stereo not shown) [1-[5-(5-chloro-2-methoxypyridin-4-yl)-1H-pyrazole-3-carbonyl]-N-[(1-methyl-5-oxopyrrolidin-3-yl)methyl]piperidine-4-carboxamide] | > 1 µM |
| COc1cc(-c2cc(C(=O)N3CCC(C(=O)NCC4CN(C)C4)CC3)n[nH]2)c(Cl)cn1 [1-[5-(5-chloro-2-methoxypyridin-4-yl)-1H-pyrazole-3-carbonyl]-N-[(1-methylazetidin-3-yl)methyl]piperidine-4-carboxamide] | > 1 µM |
| COc1cc(-c2cc(C(=O)N3CCC(C(=O)NCc4ccc5[nH]ncc5c4)CC3)n[nH]2)c(Cl)cn1 [1-[5-(5-chloro-2-methoxypyridin-4-yl)-1H-pyrazole-3-carbonyl]-N-[(1H-indazol-5-yl)methyl]piperidine-4-carboxamide] | > 1 µM |
| COc1cc(-c2cc(C(=O)N3CCC(C(=O)NCc4c(F)ccc(C)c4F)CC3)n[nH]2)c(Cl)cn1 [1-[5-(5-chloro-2-methoxypyridin-4-yl)-1H-pyrazole-3-carbonyl]-N-[(2,6-difluoro-3-methylphenyl)methyl]piperidine-4-carboxamide] | > 1 µM |
| COc1cc(-c2cc(C(=O)N3CCC(C(=O)NCc4ccccc4C#N)CC3)n[nH]2)c(Cl)cn1 [1-[5-(5-chloro-2-methoxypyridin-4-yl)-1H-pyrazole-3-carbonyl]-N-[(2-cyanophenyl)methyl]piperidine-4-carboxamide] | > 1 µM |
| COc1cc(-c2cc(C(=O)N3CCC(C(=O)NCC4(C)OCCO4)CC3)n[nH]2)c(Cl)cn1 [1-[5-(5-chloro-2-methoxypyridin-4-yl)-1H-pyrazole-3-carbonyl]-N-[(2-methyl-1,3-dioxolan-2-yl)methyl]piperidine-4-carboxamide] | > 1 µM |
| COc1cc(-c2cc(C(=O)N3CCC(C(=O)NCc4ccc5c(c4)CN(C)C5)CC3)n[nH]2)c(Cl)cn1 [1-[5-(5-chloro-2-methoxypyridin-4-yl)-1H-pyrazole-3-carbonyl]-N-[(2-methyl-2,3-dihydro-1H-isoindol-5-yl)methyl]piperidine-4-carboxamide] | > 1 µM |
| COc1cc(-c2cc(C(=O)N3CCC(C(=O)NCC4(C)CCCO4)CC3)n[nH]2)c(Cl)cn1 (stereo not shown) [1-[5-(5-chloro-2-methoxypyridin-4-yl)-1H-pyrazole-3-carbonyl]-N-[(2-methyloxolan-2-yl)methyl]piperidine-4-carboxamide] | > 1 µM |
| COc1cc(-c2cc(C(=O)N3CCC(C(=O)N[C@@H]4C[C@@H](C)Oc5ccccc54)CC3)n[nH]2)c(Cl)cn1 [1-[5-(5-chloro-2-methoxypyridin-4-yl)-1H-pyrazole-3-carbonyl]-N-[(2R,4R)-2-methyl-3,4-dihydro-2H-1-benzopyran-4-yl]piperidine-4-carboxamide] | > 1 µM |
| COc1cc(-c2cc(C(=O)N3CCC(C(=O)NCC4OCC4(C)C)CC3)n[nH]2)c(Cl)cn1 (stereo not shown) [1-[5-(5-chloro-2-methoxypyridin-4-yl)-1H-pyrazole-3-carbonyl]-N-[(3,3-dimethyloxetan-2-yl)methyl]piperidine-4-carboxamide] | > 1 µM |
| COc1cc(-c2cc(C(=O)N3CCC(OCC(F)(F)F)(C(=O)NCc4cccc(Cl)c4)CC3)n[nH]2)c(Cl)cn1 [1-[5-(5-chloro-2-methoxypyridin-4-yl)-1H-pyrazole-3-carbonyl]-N-[(3-chlorophenyl)methyl]-4-(2,2,2-trifluoroethoxy)piperidine-4-carboxamide] | > 1 µM |
| COc1cc(-c2cc(C(=O)N3CCC(CO)(C(=O)NCc4cccc(Cl)c4)CC3)n[nH]2)c(Cl)cn1 [1-[5-(5-chloro-2-methoxypyridin-4-yl)-1H-pyrazole-3-carbonyl]-N-[(3-chlorophenyl)methyl]-4-(hydroxymethyl)piperidine-4-carboxamide] | > 1 µM |
| COCC1(C(=O)NCc2cccc(Cl)c2)CCN(C(=O)c2cc(-c3cc(OC)ncc3Cl)[nH]n2)CC1 [1-[5-(5-chloro-2-methoxypyridin-4-yl)-1H-pyrazole-3-carbonyl]-N-[(3-chlorophenyl)methyl]-4-(methoxymethyl)piperidine-4-carboxamide] | > 1 µM |
